Some targets named below: Ran-binding protein 6 (UniProt O60518); Prenylcysteine oxidase 1 (UniProt Q9UHG3); Protein zwilch homolog (UniProt Q9H900).
Holding throughout (assay): chemoproteomic target identification by competition binding – cell lysate, SILAC, HepG2 extract, LC-MS/MS, mechanism study for Trib1 inducer project, late-stage follow-up (AID 1053157)
Assay [1] addresses Ubiquitin carboxyl-terminal hydrolase 34 (UniProt Q70CQ2).
Assay [2] concerns the target NADH dehydrogenase [ubiquinone] 1 alpha subcomplex subunit 6 (Homo sapiens) (UniProt P56556).
Assay [3] has as its target Ferroptosis suppressor protein 1 (Homo sapiens) (UniProt Q9BRQ8). Conditions: Apoptosis-inducing factor.

Each structure is given as a SMILES string.

Chain of Ubiquitin carboxyl-terminal hydrolase 34 (Q70CQ2 whole entry, looked up): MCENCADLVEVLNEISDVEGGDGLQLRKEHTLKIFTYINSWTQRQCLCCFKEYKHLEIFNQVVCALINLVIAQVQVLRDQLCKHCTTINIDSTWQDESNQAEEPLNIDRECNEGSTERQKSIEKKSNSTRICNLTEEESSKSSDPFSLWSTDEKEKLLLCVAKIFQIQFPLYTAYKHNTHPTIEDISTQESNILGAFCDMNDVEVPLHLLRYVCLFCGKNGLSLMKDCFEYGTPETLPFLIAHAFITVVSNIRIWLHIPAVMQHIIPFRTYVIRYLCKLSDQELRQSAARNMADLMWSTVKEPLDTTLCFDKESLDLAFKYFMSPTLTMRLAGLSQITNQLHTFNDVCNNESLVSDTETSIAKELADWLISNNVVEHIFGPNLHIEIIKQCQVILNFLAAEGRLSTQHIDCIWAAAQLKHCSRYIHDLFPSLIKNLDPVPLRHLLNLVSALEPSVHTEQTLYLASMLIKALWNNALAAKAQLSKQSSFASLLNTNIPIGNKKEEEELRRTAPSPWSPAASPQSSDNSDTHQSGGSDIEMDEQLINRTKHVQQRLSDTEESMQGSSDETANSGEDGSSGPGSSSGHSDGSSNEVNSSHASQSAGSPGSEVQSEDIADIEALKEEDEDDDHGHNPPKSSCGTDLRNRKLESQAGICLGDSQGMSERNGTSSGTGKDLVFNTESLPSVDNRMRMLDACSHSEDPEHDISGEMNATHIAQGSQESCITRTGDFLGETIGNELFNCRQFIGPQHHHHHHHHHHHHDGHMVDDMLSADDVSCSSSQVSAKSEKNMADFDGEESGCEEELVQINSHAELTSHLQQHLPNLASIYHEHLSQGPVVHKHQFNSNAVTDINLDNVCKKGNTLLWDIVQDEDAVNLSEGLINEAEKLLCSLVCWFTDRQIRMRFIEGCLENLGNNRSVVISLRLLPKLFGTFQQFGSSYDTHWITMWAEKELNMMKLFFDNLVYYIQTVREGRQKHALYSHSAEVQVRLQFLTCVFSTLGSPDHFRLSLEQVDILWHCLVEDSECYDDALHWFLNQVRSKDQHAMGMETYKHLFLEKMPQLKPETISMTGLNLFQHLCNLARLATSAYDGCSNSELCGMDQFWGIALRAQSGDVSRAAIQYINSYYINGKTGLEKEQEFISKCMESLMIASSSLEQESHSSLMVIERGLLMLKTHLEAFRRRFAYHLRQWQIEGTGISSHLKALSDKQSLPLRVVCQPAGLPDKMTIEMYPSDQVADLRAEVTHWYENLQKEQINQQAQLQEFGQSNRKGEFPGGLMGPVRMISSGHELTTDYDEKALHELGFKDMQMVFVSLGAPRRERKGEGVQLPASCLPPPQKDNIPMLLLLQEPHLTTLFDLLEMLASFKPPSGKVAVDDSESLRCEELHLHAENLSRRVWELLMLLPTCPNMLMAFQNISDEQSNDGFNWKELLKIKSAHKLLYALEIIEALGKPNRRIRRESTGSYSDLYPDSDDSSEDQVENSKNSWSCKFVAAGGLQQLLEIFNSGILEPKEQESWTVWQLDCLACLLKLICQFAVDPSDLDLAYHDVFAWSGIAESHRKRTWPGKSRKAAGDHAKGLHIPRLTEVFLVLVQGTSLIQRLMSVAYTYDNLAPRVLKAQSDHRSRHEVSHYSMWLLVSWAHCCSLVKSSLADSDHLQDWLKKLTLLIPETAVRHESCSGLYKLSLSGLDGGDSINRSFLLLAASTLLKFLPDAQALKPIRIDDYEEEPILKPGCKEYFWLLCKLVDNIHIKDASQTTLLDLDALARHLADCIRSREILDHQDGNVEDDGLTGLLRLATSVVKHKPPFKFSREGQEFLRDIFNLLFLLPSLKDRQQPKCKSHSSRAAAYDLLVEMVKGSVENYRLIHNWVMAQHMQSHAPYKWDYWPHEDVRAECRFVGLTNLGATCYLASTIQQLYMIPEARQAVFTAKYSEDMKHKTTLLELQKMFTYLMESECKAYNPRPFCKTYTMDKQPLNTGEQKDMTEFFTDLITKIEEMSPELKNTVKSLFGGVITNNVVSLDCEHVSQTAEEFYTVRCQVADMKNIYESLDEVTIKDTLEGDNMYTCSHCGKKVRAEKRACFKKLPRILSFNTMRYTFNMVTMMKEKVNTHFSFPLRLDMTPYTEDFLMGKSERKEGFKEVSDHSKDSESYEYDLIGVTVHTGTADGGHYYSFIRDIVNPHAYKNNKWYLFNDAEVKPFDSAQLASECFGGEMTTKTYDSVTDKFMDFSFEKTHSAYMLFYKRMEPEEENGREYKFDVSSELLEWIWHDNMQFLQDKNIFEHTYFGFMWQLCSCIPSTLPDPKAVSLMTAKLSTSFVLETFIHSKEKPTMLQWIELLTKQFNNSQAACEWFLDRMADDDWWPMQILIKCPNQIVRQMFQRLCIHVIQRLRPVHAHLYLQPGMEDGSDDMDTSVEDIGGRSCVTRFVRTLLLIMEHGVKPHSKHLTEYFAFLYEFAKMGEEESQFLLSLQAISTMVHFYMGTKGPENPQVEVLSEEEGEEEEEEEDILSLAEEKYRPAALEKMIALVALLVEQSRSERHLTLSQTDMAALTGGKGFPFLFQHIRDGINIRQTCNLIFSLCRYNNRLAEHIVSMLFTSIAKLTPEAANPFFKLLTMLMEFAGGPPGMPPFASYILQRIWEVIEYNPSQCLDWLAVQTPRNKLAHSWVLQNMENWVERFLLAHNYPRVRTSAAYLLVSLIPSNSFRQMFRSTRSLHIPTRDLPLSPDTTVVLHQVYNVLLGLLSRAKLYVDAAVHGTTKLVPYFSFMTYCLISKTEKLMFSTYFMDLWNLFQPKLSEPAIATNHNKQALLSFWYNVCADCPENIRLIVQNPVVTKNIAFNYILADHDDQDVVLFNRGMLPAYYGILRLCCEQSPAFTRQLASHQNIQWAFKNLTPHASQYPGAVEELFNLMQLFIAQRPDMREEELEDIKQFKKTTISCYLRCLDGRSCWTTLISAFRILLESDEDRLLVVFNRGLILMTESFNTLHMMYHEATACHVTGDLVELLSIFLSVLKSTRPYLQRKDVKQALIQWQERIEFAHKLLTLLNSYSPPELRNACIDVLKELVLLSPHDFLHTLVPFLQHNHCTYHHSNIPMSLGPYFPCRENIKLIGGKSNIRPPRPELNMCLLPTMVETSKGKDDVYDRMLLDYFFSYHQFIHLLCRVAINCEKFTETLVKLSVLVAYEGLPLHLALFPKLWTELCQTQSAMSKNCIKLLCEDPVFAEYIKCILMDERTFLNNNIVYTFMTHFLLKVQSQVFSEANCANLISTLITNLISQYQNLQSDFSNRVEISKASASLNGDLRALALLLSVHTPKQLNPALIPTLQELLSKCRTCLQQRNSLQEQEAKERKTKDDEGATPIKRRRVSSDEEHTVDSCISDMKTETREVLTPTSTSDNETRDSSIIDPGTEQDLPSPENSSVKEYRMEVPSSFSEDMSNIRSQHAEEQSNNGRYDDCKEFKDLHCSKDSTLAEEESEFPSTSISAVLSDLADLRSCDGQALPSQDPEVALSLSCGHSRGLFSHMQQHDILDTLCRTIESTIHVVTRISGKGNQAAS
Chain of Protein zwilch homolog (Q9H900 whole entry, looked up): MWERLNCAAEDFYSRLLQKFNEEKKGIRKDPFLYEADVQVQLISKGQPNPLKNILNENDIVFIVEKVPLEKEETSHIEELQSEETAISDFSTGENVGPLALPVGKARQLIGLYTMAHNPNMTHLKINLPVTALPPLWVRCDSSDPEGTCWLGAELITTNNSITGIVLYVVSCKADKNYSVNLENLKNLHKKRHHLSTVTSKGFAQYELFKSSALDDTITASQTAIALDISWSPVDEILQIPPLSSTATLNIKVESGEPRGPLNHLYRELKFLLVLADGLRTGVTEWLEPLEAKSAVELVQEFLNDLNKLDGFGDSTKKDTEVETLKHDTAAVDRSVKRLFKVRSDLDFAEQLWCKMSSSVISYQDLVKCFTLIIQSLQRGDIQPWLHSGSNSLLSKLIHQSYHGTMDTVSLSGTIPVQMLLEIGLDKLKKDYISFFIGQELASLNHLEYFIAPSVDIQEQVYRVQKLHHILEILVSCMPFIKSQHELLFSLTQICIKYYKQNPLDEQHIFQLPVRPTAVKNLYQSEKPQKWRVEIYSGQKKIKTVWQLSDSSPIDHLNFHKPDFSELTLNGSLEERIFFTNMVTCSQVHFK
Chain of Ferroptosis suppressor protein 1 (Homo sapiens) (Q9BRQ8 whole entry, looked up): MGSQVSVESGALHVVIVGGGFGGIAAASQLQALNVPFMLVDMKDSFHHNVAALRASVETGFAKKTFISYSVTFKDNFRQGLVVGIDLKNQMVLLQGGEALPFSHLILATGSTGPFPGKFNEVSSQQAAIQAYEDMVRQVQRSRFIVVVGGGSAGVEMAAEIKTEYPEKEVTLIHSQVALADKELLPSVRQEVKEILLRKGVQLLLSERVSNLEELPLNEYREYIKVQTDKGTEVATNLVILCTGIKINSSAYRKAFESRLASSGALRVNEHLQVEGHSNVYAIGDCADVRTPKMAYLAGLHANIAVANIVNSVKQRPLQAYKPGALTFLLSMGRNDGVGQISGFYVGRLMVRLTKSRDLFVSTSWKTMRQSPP
Chain of NADH dehydrogenase [ubiquinone] 1 alpha subcomplex subunit 6 (Homo sapiens) (P56556 whole entry, looked up, one chain of several): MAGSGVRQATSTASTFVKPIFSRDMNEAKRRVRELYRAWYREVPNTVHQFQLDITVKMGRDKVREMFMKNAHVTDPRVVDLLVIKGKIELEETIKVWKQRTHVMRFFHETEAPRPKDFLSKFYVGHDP

`CN1C(=O)c2cc(NC(=O)c3ccc(C(F)(F)F)cc3)ccc2OC[C@@H]2O[C@H](CC(=O)NC3Cc4ccccc4C3)CC[C@@H]21`: the Kd – broadly, the free concentration of one partner at which half of the binding sites on the other are occupied at equilibrium, for simple one-to-one binding – was 25.6 µM at Ran-binding protein 6; 25.7 µM in assay [1]; 10.2 µM at Prenylcysteine oxidase 1; 18.4 µM at Protein zwilch homolog; 29.3 µM in assay [2]; 26.7 µM in assay [3].

(Values after PubChem BioAssay AID1053157 (Broad Institute, 2014).)
